Test results as given in ChEMBL document CHEMBL4513161, “CO-ADD screening of MMV (CH) - Pandemic Response Box” (2021).
Converted amounts (≈) assume the structure as drawn.

Columns and labels:
HEK293 = test: cells; type: functional, Homo sapiens, ATCC CRL1573; conditions: Homo sapiens, ATCC CRL1573, HEK293; ASSAY_TEST Inhibition of Cell Viability; detection method Resazurin; Fluorescence (ex560/em590); MEDIA DMEM with 10% FBS; plate type 384well; TC; CORNING #3712; time 18 hr; read-out: CC50
Pseudomonas aeruginosa [1] = test: Antibacterial activity against Pseudomonas aeruginosa PAO397 [PAO1 d(mexAB-oprM) d(mexCD-oprJ) d(mexEF-oprN) d(mexJKL) d(mexXY) d(opmH)] (CO-ADD:GN_211); MIC in CAMBH media using NBS plates, by OD(600); type: functional; conditions: ASSAY_TEST Inhibition of Bacterial Growth, detection method Absorption (OD600), MEDIA CAMHB, plate type 384well, CORNING #3640, time 18 hr
Staphylococcus aureus = test: microbe, parasite or virus in culture; conditions: ATCC 43300, 18 h, ASSAY_TEST Inhibition of Bacterial Growth, detection method Absorption (OD600), MEDIA CAMHB, plate type 384well, NBS, CORNING #3640
Description: Antibacterial activity against Staphylococcus aureus MRSA ATCC 43300 (CO-ADD:GP_020); MIC in CAMBH media, using NBS plates, by OD(600)

Escherichia coli = test: microbe, parasite or virus in culture; conditions: ATCC 25922, 18 h, ASSAY_TEST Inhibition of Bacterial Growth, detection method Absorption (OD600), MEDIA CAMHB, plate type 384well, NBS, CORNING #3640
Description: Antibacterial activity against Escherichia coli ATCC 25922 (CO-ADD:GN_001); MIC in CAMBH media using NBS plates, by OD(600)

Klebsiella pneumoniae = test: microbe, parasite or virus in culture; conditions: ATCC 700603, 18 h, ASSAY_TEST Inhibition of Bacterial Growth, detection method Absorption (OD600), MEDIA CAMHB, plate type 384well, NBS, CORNING #3640
Description: Antibacterial activity against Klebsiella pneumoniae MDR ATCC 70063 (CO-ADD:GN_003); MIC in CAMBH media using NBS plates, by OD(600)

Pseudomonas aeruginosa [2] = test: microbe, parasite or virus in culture; conditions: ATCC 27853, 18 h, ASSAY_TEST Inhibition of Bacterial Growth, detection method Absorption (OD600), MEDIA CAMHB, plate type 384well, NBS, CORNING #3640
Description: Antibacterial activity against Pseudomonas aeruginosa ATCC 27853 (CO-ADD:GN_042); MIC in CAMBH media using NBS plates, by OD(600)

Acinetobacter baumannii = test: microbe, parasite or virus in culture; conditions: ATCC 19606, 18 h, ASSAY_TEST Inhibition of Bacterial Growth, detection method Absorption (OD600), MEDIA CAMHB, plate type 384well, NBS, CORNING #3640
Description: Antibacterial activity against Acinetobacter baumannii ATCC 19606 (CO-ADD:GN_034); MIC in CAMBH media using NBS plates, by OD600

Candida albicans = test: microbe, parasite or virus in culture; conditions: ATCC 90028, ASSAY_TEST Inhibition of Fungal Growth, detection method Absorption (OD530), plate type 384well, NBS, CORNING #3640
Description: Antifungal activity against Candida albicans ATCC 90028 (CO-ADD:FG_001); MIC in YNB media using NBS plates, by OD630

Description for Cryptococcus neoformans: Antifungal activity against Cryptococcus neoformans H99 ATCC 208821 (CO-ADD:FG_002); MIC in YNB media using NBS plates, by Resazurin OD(600-570)

| Compound | CC50 (HEK293) [µM] | MIC (Pseudomonas aeruginosa [1]) [µM] | MIC (Cryptococcus neoformans) [µM] | MIC (Staphylococcus aureus) [µM] | MIC (Escherichia coli) [µM] | MIC (Klebsiella pneumoniae) [µM] | MIC (Pseudomonas aeruginosa [2]) [µM] | MIC (Acinetobacter baumannii) [µM] | MIC (Candida albicans) [µM] |
| --- | --- | --- | --- | --- | --- | --- | --- | --- | --- |
| NC[C@H]1O[C@H](O[C@H]2[C@H](O)[C@@H](O[C@H]3O[C@H](CO)[C@@H](O)[C@H](N)[C@H]3O)[C@H](N)C[C@@H]2N)[C@H](N)C[C@@H]1O [TOBRAMYCIN] | > 20 | 1.25 (≈ 0.584 µg/mL) | > 20 | > 20 | 2.5 (≈ 1.17 µg/mL) | > 20 | 20 (≈ 9.35 µg/mL) | 2.5 (≈ 1.17 µg/mL) | > 20 |
| CCC(CC)[C@H](NC(C)=O)[C@@H]1[C@H](O)[C@@H](C(=O)O)C[C@H]1NC(=N)N | > 20 | > 20 | > 20 | > 20 | > 20 | > 20 | > 20 | > 20 | > 20 |
| CCc1nc2ccc(Cl)cn2c1C(=O)NCc1ccc(N2CCC(c3ccc(OC(F)(F)F)cc3)CC2)cc1 [TELACEBEC] | > 20 | > 20 | > 20 | > 20 | > 20 | > 20 | > 20 | > 20 | > 20 |
| Cc1[nH]c2ccccc2c1CCNCc1ccc(/C=C/C(=O)NO)cc1 [PANOBINOSTAT] | > 20 | > 20 | > 20 | > 20 | > 20 | > 20 | > 20 | > 20 | > 20 |
| CCN(CC)S(=O)(=O)c1ccc(Cl)c(C(=O)Nc2sc3c(c2C#N)CCCC3)c1 | > 20 | > 20 | > 20 | > 20 | > 20 | > 20 | > 20 | > 20 | > 20 |
| C[C@@H](NC(=O)c1cccc(-c2cnc(-c3cc4ccccc4cn3)[nH]2)c1)c1ccc(F)cc1 | 10.8 | > 20 | > 20 | > 20 | > 20 | > 20 | > 20 | > 20 | > 20 |
| O=C(NNC(=S)Nc1ccc(Cl)cc1)c1ccncc1 | > 20 | > 20 | > 20 | > 20 | > 20 | > 20 | > 20 | > 20 | > 20 |
| COc1ccc(C(C)(C)C)cc1NC(=O)C(=O)c1ccc(OCCN2CCOCC2)c2ccccc12 | > 20 | > 20 | > 20 | > 20 | > 20 | > 20 | > 20 | > 20 | > 20 |
| Fc1ccc(-n2cc(Cn3c(-c4cccc(F)c4)nc4ccccc43)nn2)cc1 | > 20 | > 20 | > 20 | > 20 | > 20 | > 20 | > 20 | > 20 | > 20 |
| COc1cc(NC(=O)CN2C(=O)NC(c3ccccc3)(c3ccccc3)C2=O)cc(OC)c1 | > 20 | > 20 | > 20 | > 20 | > 20 | > 20 | > 20 | > 20 | > 20 |
| C[C@H](Cn1cnc2c(N)ncnc21)OCP(=O)(O)O [TENOFOVIR ANHYDROUS] | > 20 | > 20 | > 20 | > 20 | > 20 | > 20 | > 20 | > 20 | > 20 |
| Cc1cc(CCCOc2c(C)cc(-c3noc(C(F)(F)F)n3)cc2C)on1 [PLECONARIL] | > 20 | > 20 | > 20 | > 20 | > 20 | > 20 | > 20 | > 20 | > 20 |
| COc1ccccc1NC(=O)c1ccccc1Sc1ccc([N+](=O)[O-])cc1 | > 20 | > 20 | > 20 | > 20 | > 20 | > 20 | > 20 | > 20 | > 20 |
| Nc1c(C(=O)NCc2ccco2)c2nc3ccccc3nc2n1CCN1CCCCC1 | > 20 | > 20 | > 20 | > 20 | > 20 | > 20 | > 20 | > 20 | > 20 |
| O=C(O)[C@H]1C2CCC(CC2)[C@@H]1Nc1nc(-c2c[nH]c3ncc(F)cc23)ncc1F [PIMODIVIR] | > 20 | > 20 | > 20 | > 20 | > 20 | > 20 | > 20 | > 20 | > 20 |
| Cc1c(N)cccc1Cn1ccc(OCCc2cccs2)cc1=O [CG-400549] | > 20 | > 20 | > 20 | 0.625 (≈ 0.213 µg/mL) | > 20 | > 20 | > 20 | > 20 | > 20 |
| C[C@H]1[C@@H](c2cccc(C(F)(F)F)c2)OC(=O)N1C(=O)NCc1cncc2ccccc12 | > 20 | > 20 | > 20 | > 20 | > 20 | > 20 | > 20 | > 20 | > 20 |
| NC(=O)c1ccc(I)c([N+](=O)[O-])c1 [INIPARIB] | > 20 | > 20 | > 20 | > 20 | > 20 | > 20 | > 20 | > 20 | > 20 |
| CC(C)(C)c1cccc(-c2nc3cc(C(=N)N)ccc3[nH]2)c1O | > 20 | > 20 | > 20 | 10 (≈ 3.08 µg/mL) | > 20 | > 20 | > 20 | > 20 | > 20 |
| Cc1cc(C2CCCCC2)n(O)c(=O)c1 [CICLOPIROX] | 3.98 | > 20 | 5 (≈ 1.04 µg/mL) | > 20 | > 20 | > 20 | > 20 | > 20 | 5 (≈ 1.04 µg/mL) |
| C[N+]1(C)CCCC(OC(=O)C(O)(c2ccccc2)c2ccccc2)C1 (stereo not drawn) [MEPENZOLATE BROMIDE] | > 20 | > 20 | > 20 | > 20 | > 20 | > 20 | > 20 | > 20 | > 20 |
| CC(C)(C)NC(=O)N[C@H](C(=O)N1C[C@H]2[C@@H]([C@H]1C(=O)NC(CC1CCC1)C(=O)C(N)=O)C2(C)C)C(C)(C)C (stereo partly drawn) [BOCEPREVIR] | > 20 | > 20 | > 20 | > 20 | > 20 | > 20 | > 20 | > 20 | > 20 |
| N=C(N)c1ccc(COc2ccc(Cl)cc2)cc1 | > 20 | > 20 | > 20 | > 20 | > 20 | > 20 | > 20 | > 20 | > 20 |
| Cc1nc2ccc(Cl)cc2c(-c2ccccc2)c1CC(=O)O | > 20 | > 20 | > 20 | > 20 | > 20 | > 20 | > 20 | > 20 | > 20 |
| O=C1C=C(c2ccccc2)S(=O)(=O)c2ccccc21 | 4.03 | > 20 | 5 (≈ 1.35 µg/mL) | > 20 | > 20 | > 20 | > 20 | > 20 | 5 (≈ 1.35 µg/mL) |
| C[C@@H](O)[C@H](N)C(=O)NS(=O)(=O)c1cccc(-c2ccc3[nH]ncc3c2)c1 | > 20 | > 20 | > 20 | > 20 | > 20 | > 20 | > 20 | > 20 | > 20 |
| O=C(c1cc(O)nc2ccccc12)N1CCN(c2ccccc2)CC1 | > 20 | > 20 | > 20 | > 20 | > 20 | > 20 | > 20 | > 20 | > 20 |
